Molecules are shown by their SMILES. pIC50, pKd: −log10 of the molar value.

We go through 20 compounds from patent US20240279221A1, “HETEROCYCLIC COMPOUNDS AND METHODS OF USE” (Schrödinger, Inc., priority 2021, published 2024).

One test addresses human SOS1 (Homo sapiens (Human), UniProt Q07889). Kind of test: Surface Plasmon Resonance (SPR) SOS1 Binding Assay. The conditions noted are these: biotinylated SOS1 (res. 564-1049), 25° C., kinetic or steady state fit, read-out: KD for hSOS1. The method, then:
Binding to SOS1 was measured using a SPR assay with purified recombinant human SOS1 substrate (res. 564-1049 with N-terminal Avi tag; purified and biotinylated based on Hillig, et al., Proc Natl Acad Sci USA (2019); 116(7):2551-2560). SPR measurements were performed on a Biacore 8K SPR instrument (GE Healthcare, Sweden). Assays were performed at 25° C. using Series S SA sensor chips pre-coated with streptavidin (GE Healthcare, Cat. BR100531). Biotinylated SOS1 diluted in sample buffer (20 mM Tris HCl, 150 mM NaCl, 1 mM DTT, 0.05% TWEEN 20, 1 mM MgCl2, pH 8.0) was captured to one flow cell of the chip to about 3,000 resonance units (RU) using sample buffer supplemented with 5% DMSO as a running buffer. Serial dilutions of the assayed compounds in the running buffer at 100, 50 or 0.5 μM were injected for 60 s at a flow rate of 30 μL/min and association phases were recorded. Dissociation of the samples was monitored for 600 s. Data processing was performed using Biacore Insight Software (Biacore, GE Healthcare). Sensorgrams recorded on a SA flow cell without captured protein were subtracted from sensorgrams recorded on the SOS1 surface. Blank injections of running buffer were used for double referencing and solvent correction was applied to all sample sensorgrams to correct for buffer mismatches. KDs were estimated using a kinetic or steady state, where applicable, fitting model describing a reversible equilibrium with 1:1 binding between SOS1 and the compound.

The target of test [1] is SOS1:KRAS (G12C) interaction (Homo sapiens (Human), UniProt Q07889). Kind of test: SOS1-KRas(G12C) FRET Assay. The settings on record: 0.5 nM His10-SOS1 (res. 564-1049), 2.5 nM GST-KRAS (res. 1-169, G12C); read-out: SOS-KRas(G12C) FRET IC50. Type of test: binding. In outline:
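Compounds were pre-incubated 15 min at 25° C with SOS1 (His10, res. 564-1049; 0.5 nM final) and anti-6His-XL665, then GST-KRAS G12C (res. 1-169; 2.5 nM final) with anti-GST-Eu(K) was added for 2 h at RT. The buffer was PBS, 0.1% BSA, 5 mM MgCl2, 100 mM KF, 5 mM DTT with 0.5% DMSO. The 665/615 nm signal was normalised to DMSO and no-SOS1 controls, and IC50 and Hill coefficient were fitted by non-linear regression.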

Chain of SOS1:KRAS (G12C) interaction (Q07889 564-1049, stated change not applied): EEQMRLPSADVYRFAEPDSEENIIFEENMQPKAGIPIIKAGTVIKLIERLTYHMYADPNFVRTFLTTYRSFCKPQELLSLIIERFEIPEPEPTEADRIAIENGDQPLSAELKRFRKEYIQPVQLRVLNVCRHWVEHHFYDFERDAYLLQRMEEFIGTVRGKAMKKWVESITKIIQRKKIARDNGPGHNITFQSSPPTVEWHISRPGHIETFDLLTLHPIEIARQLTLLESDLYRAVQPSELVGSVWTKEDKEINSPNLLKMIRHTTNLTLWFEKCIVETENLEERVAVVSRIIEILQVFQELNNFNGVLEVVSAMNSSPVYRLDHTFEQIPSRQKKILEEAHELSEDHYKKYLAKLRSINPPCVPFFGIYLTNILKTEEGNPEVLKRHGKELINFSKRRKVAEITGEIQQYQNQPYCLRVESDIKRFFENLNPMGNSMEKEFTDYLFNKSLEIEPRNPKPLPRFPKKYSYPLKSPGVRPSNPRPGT
Chain of human SOS1 (Q07889 564-1049): as the sequence (Q07889 564-1049, stated change not applied) above

`Cc1c([C@@H](C)Nc2nn(C)c(=O)c3c(C#N)c(=O)n(C4CC4)cc23)cccc1C(F)(F)F` [Example 10, (R)-6-cyclopropyl-2-methyl-4-((1-(2-methyl-3-(trifluoromethyl)phenyl)ethyl)amino)-1,7-dioxo-1,2,6,7-tetrahydropyrido[3,4-d]pyridazine-8-carbonitrile]: the pKd on human SOS1 was 6.87. Moreover, the pIC50 in test [1] was 5.65.
For the compound `Cc1c([C@@H](C)Nc2nn(C)c(=O)c3c(Cl)c(=O)n(C4CC4)cc23)cccc1C(F)(F)F` [Example 11, (R)-8-chloro-6-cyclopropyl-2-methyl-4-((1-(2-methyl-3-(trifluoromethyl)phenyl)ethyl)amino)-2,6-dihydropyrido[3,4-d]pyridazine-1,7-dione], at human SOS1, the pKd is 7.02. For the same compound, in test [1], the pIC50 is 6.23.
For `Cc1c([C@@H](C)Nc2nn(C)c(=O)c3c(N)c(=O)n(C4CC4)cc23)cccc1C(F)(F)F` [Example 12, (R)-8-amino-6-cyclopropyl-2-methyl-4-((1-(2-methyl-3-(trifluoromethyl)phenyl)ethyl)amino)-2,6-dihydropyrido[3,4-d]pyridazine-1,7-dione], the pKd on human SOS1 was 6.54. Besides, in test [1], the pIC50 is 5.88.
As to `Cc1c([C@@H](C)Nc2nn(C)c(=O)c3cc(=O)n([C@H]4C[C@H](O)C4)cc23)cccc1C(F)(F)F` [Example 13, 6-((1r,3r)-3-hydroxycyclobutyl)-2-methyl-4-(((R)-1-(2-methyl-3-(trifluoromethyl)phenyl)ethyl)amino)-2,6-dihydropyrido[3,4-d]pyridazine-1,7-dione], the pKd on human SOS1 was 7.60. Moreover, the pIC50 in test [1] was 7.00.
In the case of `Cc1c([C@@H](C)Nc2nn(C)c(=O)c3cc(=O)n([C@H]4C[C@@H](O)C4)cc23)cccc1C(F)(F)F` [Example 14, 6-((1s,3s)-3-hydroxycyclobutyl)-2-methyl-4-(((R)-1-(2-methyl-3-(trifluoromethyl)phenyl)ethyl)amino)-2,6-dihydropyrido[3,4-d]pyridazine-1,7-dione], the pKd at human SOS1 was 7.06. Further, the pIC50 in test [1] was 6.27.
With `Cc1c([C@@H](C)Nc2nn(C)c(=O)c3cc(=O)n(C4(C)CC4)cc23)cccc1C(F)(F)F` [Example 15, (R)-2-methyl-4-((1-(2-methyl-3-(trifluoromethyl)phenyl)ethyl)amino)-6-(1-methylcyclopropyl)-2,6-dihydropyrido[3,4-d]pyridazine-1,7-dione], the pKd on human SOS1 is 7.40. Further, in test [1], the pIC50 is 6.70.
`Cc1c([C@@H](C)Nc2nn(C)c(=O)c3cc(=O)n(C45CC(C4)C5)cc23)cccc1C(F)(F)F` [Example 16, (R)-6-(bicyclo[1.1.1]pentan-1-yl)-2-methyl-4-((1-(2-methyl-3-(trifluoromethyl)phenyl)ethyl)amino)-2,6-dihydropyrido[3,4-d]pyridazine-1,7-dione]: the pKd on human SOS1 is 7.08. The pIC50 in test [1] is 6.63.
In the same order, the values of `C[C@@H](Nc1nn(C)c(=O)c2cc(=O)n(C3CC3)cc12)c1cccc(C(F)F)c1F` [Example 17, (R)-6-cyclopropyl-4-((1-(3-(difluoromethyl)-2-fluorophenyl)ethyl)amino)-2-methyl-2,6-dihydropyrido[3,4-d]pyridazine-1,7-dione] are 7.51 and 6.61.
Take `C[C@@H](Nc1nn(C)c(=O)c2cc(=O)n(C3CCOCC3)cc12)c1cccc(C(F)F)c1F` [Example 18, (R)-4-((1-(3-(difluoromethyl)-2-fluorophenyl)ethyl)amino)-2-methyl-6-(tetrahydro-2H-pyran-4-yl)-2,6-dihydropyrido[3,4-d]pyridazine-1,7-dione]: the pKd on human SOS1 is 7.80. The pIC50 in test [1] was 7.27.
Turning to `CCOc1c(=O)n(C2CC2)cc2c(N[C@H](C)c3cccc(C(F)(F)F)c3C)nn(C)c(=O)c12` [Example 19, (R)-6-cyclopropyl-8-ethoxy-2-methyl-4-((1-(2-methyl-3-(trifluoromethyl)phenyl)ethyl)amino)-2,6-dihydropyrido[3,4-d]pyridazine-1,7-dione], the pKd at human SOS1 was 6.79. In addition, in test [1], the pIC50 is 6.09.
The matching figures for `Cc1c([C@@H](C)Nc2nn(C)c(=O)c3c(N4CC[C@@H](N)C4)c(=O)n(C4CC4)cc23)cccc1C(F)(F)F` [Example 20, 8-((R)-3-aminopyrrolidin-1-yl)-6-cyclopropyl-2-methyl-4-(((R)-1-(2-methyl-3-(trifluoromethyl)phenyl)ethyl)amino)-2,6-dihydropyrido[3,4-d]pyridazine-1,7-dione]: 7.20 and 6.55.
With `Cc1c([C@@H](C)Nc2nn(C)c(=O)c3c(N4CC[C@H](N)C4)c(=O)n(C4CC4)cc23)cccc1C(F)(F)F` [Example 21, 8-((S)-3-aminopyrrolidin-1-yl)-6-cyclopropyl-2-methyl-4-(((R)-1-(2-methyl-3-(trifluoromethyl)phenyl)ethyl)amino)-2,6-dihydropyrido[3,4-d]pyridazine-1,7-dione], the pKd at human SOS1 was 7.15. Besides, the pIC50 in test [1] is 6.52.
Turning to `Cc1c([C@@H](C)Nc2nn(C)c(=O)c3cc(=O)n(C4CCNCC4)cc23)cccc1C(F)(F)F` [Example 22, (R)-2-methyl-4-((1-(2-methyl-3-(trifluoromethyl)phenyl)ethyl)amino)-6-(piperidin-4-yl)-2,6-dihydropyrido[3,4-d]pyridazine-1,7-dione], on human SOS1, the pKd was 7.13. Besides, in test [1], the pIC50 is 6.46.
Regarding `Cc1c([C@@H](C)Nc2nn(CCN)c(=O)c3cc(=O)n(C4CC4)cc23)cccc1C(F)(F)F` [Example 24, (R)-2-(2-aminoethyl)-6-cyclopropyl-4-((1-(2-methyl-3-(trifluoromethyl)phenyl)ethyl)amino)-2,6-dihydropyrido[3,4-d]pyridazine-1,7-dione], at human SOS1, the pKd is 7.47. Further, the pIC50 in test [1] is 6.62.
Turning to `Cc1c([C@@H](C)Nc2nn(C)c(=O)c3cc(=O)n([C@H]4C[C@H](n5ccnc5)C4)cc23)cccc1C(F)(F)F` [Example 29, 6-((1r,3R)-3-(1H-imidazol-1-yl)cyclobutyl)-2-methyl-4-(((R)-1-(2-methyl-3-(trifluoromethyl)phenyl)ethyl)amino)-2,6-dihydropyrido[3,4-d]pyridazine-1,7-dione], the pKd at human SOS1 is 7.38. Besides, the pIC50 in test [1] was 7.21.
The matching figures for `Cc1c([C@@H](C)Nc2nn(C)c(=O)c3c([C@H]4CCCN4)c(=O)n(C4CC4)cc23)cccc1C(F)(F)F` [Example 35, 6-cyclopropyl-2-methyl-4-(((R)-1-(2-methyl-3-(trifluoromethyl)phenyl)ethyl)amino)-8-((R)-pyrrolidin-2-yl)-2,6-dihydropyrido[3,4-d]pyridazine-1,7-dione]: 7.77 and 7.11.
In the same order, the values of `C[C@@H](Nc1nn(C)c(=O)c2cc(=O)n(C3CCOCC3)cc12)c1cccc(C(C)(F)F)c1F` [Example 36, (R)-4-((1-(3-(1,1-difluoroethyl)-2-fluorophenyl)ethyl)amino)-2-methyl-6-(tetrahydro-2H-pyran-4-yl)-2,6-dihydropyrido[3,4-d]pyridazine-1,7-dione] are 7.80 and 7.48.
In the same order, the values of `C[C@@H](Nc1nn(C)c(=O)c2cc(=O)n(C3CCOCC3)cc12)c1cccc(C(F)(F)C(C)(C)O)c1F` [Example 40, (R)-4-((1-(3-(1,1-difluoro-2-hydroxy-2-methylpropyl)-2-fluorophenyl)ethyl)amino)-2-methyl-6-(tetrahydro-2H-pyran-4-yl)-2,6-dihydropyrido[3,4-d]pyridazine-1,7-dione] are 8.05 and 7.68.
As to `COc1c(=O)n(C2CCOCC2)cc2c(N[C@H](C)c3cccc(C(F)(F)C(C)(C)O)c3F)nn(C)c(=O)c12` [Example 41, (R)-4-((1-(3-(1,1-difluoro-2-hydroxy-2-methylpropyl)-2-fluorophenyl)ethyl)amino)-8-methoxy-2-methyl-6-(tetrahydro-2H-pyran-4-yl)-2,6-dihydropyrido[3,4-d]pyridazine-1,7-dione], the pKd on human SOS1 is 7.85. Besides, in test [1], the pIC50 was 7.55.
As to `C[C@@H](Nc1nn(C)c(=O)c2cc(=O)n(C3CC3)cc12)c1cccc(C(F)(F)C(C)(C)O)c1F` [Example 42, (R)-6-cyclopropyl-4-((1-(3-(1,1-difluoro-2-hydroxy-2-methylpropyl)-2-fluorophenyl)ethyl)amino)-2-methyl-2,6-dihydropyrido[3,4-d]pyridazine-1,7-dione], the pKd at human SOS1 was 7.47. Also, the pIC50 in test [1] was 7.26.
